Measurements: ChEMBL document CHEMBL3826966, “A chromatography-free isolation of rohitukine from leaves of Dysoxylum binectariferum: Evaluation for in vitro cytotoxicity, Cdk inhibition and physicochemical properties” (Bioorg Med Chem Lett, 2016)

Experiments:
Assay type in all cases: physicochemical
[1] = Partition coefficient, logP of the compound in water/PBS buffer at pH 7.4 at 25 degC after 20 mins by shake flask method
[2] = Ionization constant, pKa of the compound in buffer at pH 1 to 13 by uV spectrophotometry
[3] = Distribution coefficient, logD of the compound in water/PBS buffer at pH 7.4 at 25 degC after 20 mins by shake flask method
[4] = Partition coefficient, logP of the compound in water/PBS buffer at 25 degC by OECD guidelines based method; settings: octanol/water
[5] = Ionization constant, pKa of the compound

## CN1CC[C@H](c2c(O)cc(O)c3c(=O)cc(-c4ccccc4Cl)oc23)[C@H](O)C1 [ALVOCIDIB]
[1]
  logD at 20 min: 0.21
[2]
  pKa: 5.56
[3]
  logD at 20 min: 1.24
[4]
  logP: 1.01
[5]
  pKa: 5.68
